Source: PubChem BioAssay (NCI)
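Cultured in 96-well plates, cells were exposed to test compound for 48 hours across five concentrations. Here, GI50 denotes the concentration required for 50% inhibition of growth. Definition used: TGI = concentration required for complete inhibition of growth.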

Legend:
Experiment in all cases: NCI anticancer screen, dose series, 48 h
[1] = test system: A498 renal
[2] = test system: A549 NSCLC
[3] = test system: ACHN renal
[4] = test system: BT-549 breast
[5] = test system: CAKI-1 renal
[6] = test system: CCRF-CEM leukemia
[7] = test system: DU-145 prostate
[8] = test system: EKVX NSCLC
[9] = test system: HCC-2998 colon
[10] = test system: HCT-116 colon
[11] = test system: HCT-15 colon
[12] = test system: HL-60(TB) leukemia
[13] = test system: HOP-62 NSCLC
[14] = test system: HOP-92 NSCLC
[15] = test system: IGROV1 ovarian
[16] = test system: K-562 leukemia
[17] = test system: KM12 colon
[18] = test system: LOX IMVI melanoma
[19] = test system: M14 melanoma
[20] = test system: MALME-3M melanoma
[21] = test system: MCF7 breast
[22] = test system: MDA-MB-435
[23] = test system: MOLT-4 leukemia
[24] = test system: NCI-H23 lung
[25] = test system: NCI-H460 lung
[26] = test system: NCI-H522 lung
[27] = test system: OVCAR-3 ovarian
[28] = test system: OVCAR-4 ovarian
[29] = test system: OVCAR-5 ovarian
[30] = test system: OVCAR-8 ovarian
[31] = test system: PC-3 prostate
[32] = test system: SF-295 CNS
[33] = test system: SF-539 CNS
[34] = test system: SK-MEL-2 melanoma
[35] = test system: SK-MEL-28 melanoma
[36] = test system: SK-MEL-5 melanoma
[37] = test system: SK-OV-3 ovarian
[38] = test system: SN12C renal
[39] = test system: SNB-19 CNS
[40] = test system: SNB-75 CNS
[41] = test system: SW-620 colon
[42] = test system: TK-10 renal
[43] = test system: U251 CNS
[44] = test system: UACC-257 melanoma
[45] = test system: UACC-62 melanoma
[46] = test system: UO-31 renal

Compound: Cc1ccc(C2CC(c3cccc(Nc4ccncc4)c3)=NN2c2cc(Cl)cc(Cl)c2)cc1 (configuration not stated)
- GI50 [1]: 1210 nM
- TGI [1]: 2470 nM
- GI50 [2]: 1780 nM
- TGI [2]: 3600 nM
- GI50 [3]: 1650 nM
- TGI [3]: 3000 nM
- GI50 [4]: 1740 nM
- TGI [4]: 3380 nM
- GI50 [5]: 1540 nM
- TGI [5]: 3030 nM
- GI50 [6]: 3470 nM
- TGI [6]: > 100000 nM
- GI50 [7]: 1900 nM
- TGI [7]: 3520 nM
- GI50 [8]: 1550 nM
- TGI [8]: 2940 nM
- GI50 [9]: 1520 nM
- TGI [9]: 2850 nM
- GI50 [10]: 1850 nM
- TGI [10]: 3850 nM
- GI50 [11]: 1670 nM
- TGI [11]: 3100 nM
- GI50 [12]: 1830 nM
- TGI [12]: 4110 nM
- GI50 [13]: 1910 nM
- TGI [13]: 4530 nM
- GI50 [14]: 1370 nM
- TGI [14]: 2780 nM
- GI50 [15]: 1690 nM
- TGI [15]: 3230 nM
- GI50 [16]: 1850 nM
- TGI [16]: 4580 nM
- GI50 [17]: 1650 nM
- TGI [17]: 3040 nM
- GI50 [18]: 1550 nM
- TGI [18]: 2890 nM
- GI50 [19]: 1930 nM
- TGI [19]: 3990 nM
- GI50 [20]: 1670 nM
- TGI [20]: 3250 nM
- GI50 [21]: 1890 nM
- TGI [21]: 4100 nM
- GI50 [22]: 1660 nM
- TGI [22]: 3110 nM
- GI50 [23]: 1940 nM
- TGI [23]: 4440 nM
- GI50 [24]: 1760 nM
- TGI [24]: 3350 nM
- GI50 [25]: 1830 nM
- TGI [25]: 3550 nM
- GI50 [26]: 1730 nM
- TGI [26]: 3580 nM
- GI50 [27]: 1720 nM
- TGI [27]: 3230 nM
- GI50 [28]: 1580 nM
- TGI [28]: 3100 nM
- GI50 [29]: 1650 nM
- TGI [29]: 3060 nM
- GI50 [30]: 2210 nM
- TGI [30]: 5240 nM
- GI50 [31]: 1580 nM
- TGI [31]: 3200 nM
- GI50 [32]: 1720 nM
- TGI [32]: 3100 nM
- GI50 [33]: 1650 nM
- TGI [33]: 3050 nM
- GI50 [34]: 2000 nM
- TGI [34]: 3990 nM
- GI50 [35]: 1770 nM
- TGI [35]: 3300 nM
- GI50 [36]: 1760 nM
- TGI [36]: 3170 nM
- GI50 [37]: 1680 nM
- TGI [37]: 3380 nM
- GI50 [38]: 1710 nM
- TGI [38]: 3240 nM
- GI50 [39]: 1720 nM
- TGI [39]: 3450 nM
- GI50 [40]: 1230 nM
- TGI [40]: 2620 nM
- GI50 [41]: 1690 nM
- TGI [41]: 3260 nM
- GI50 [42]: 1640 nM
- TGI [42]: 3070 nM
- GI50 [43]: 1860 nM
- TGI [43]: 3880 nM
- GI50 [44]: 1880 nM
- TGI [44]: 3830 nM
- GI50 [45]: 1770 nM
- TGI [45]: 3250 nM
- GI50 [46]: 1310 nM
- TGI [46]: 2590 nM
